# “Also recorded” adds a separate entry of the source. Read-outs that look alike come from different tables or passages of the source.
# Assays:
# [1] = test system: full-thickness skin defect wound surfaces; experiment: Effect of Hst1-MAD cyclic peptide on wound repair in mice (Example 22): healing rate, histology, immunohistochemistry, immunofluorescence double staining, Western Blot; format: in vivo, C57 BL/6 mice
# Procedure: […]. 36 healthy male special pathogen-free grade C57 BL/6 mice (purchased from Guangdong Experimental Animal Center) of 6-8 weeks old and weighing 22-28 g. They were intraperitoneally injected with 5 ml/kg of 1% pentobarbital sodium for anesthesia. After the mice had no corneal reflex, the hair on their backs was carefully removed and disinfected with alcohol. […] full-thickness skin defect wound surfaces were prepared on the back of each mouse by using a circular skin punch. […]. Each wound surface was added with 0.5 ml of four drugs respectively, and administration was conducted every day until the wound surfaces of the experimental groups healed. Photographs were taken on days 0, 3, 5, and 10 after surgery, and wound tissues were sampled on days 3, 5, and 10 for subsequent pathological staining.
# was observed and photographed with a digital camera (see FIG. 19), and the wound healing rate was calculated (see FIG. 20). Wound healing rate=(wound area immediately after injury−unhealed wound area at each time point)÷wound area immediately after injury×100%.
# The wound specimens were fixed in 4% paraformaldehyde for 48 hours, rinsed with tap water for 10 minutes, dehydrated with graded ethanol, permeabilized with xylene, and embedded in paraffin to prepare 4 μm thick sections. Some sections were taken and subjected to HE staining to detect an epidermal thickness and subjected to Masson staining to detect newly grown collagen. Through hematoxylin-cosin staining (HE), the effects of the four groups of drugs on newly grown epidermal at the wound surface on day 10 were evaluated (FIGS. 21 and 22). Through Masson staining, the effects of the four groups of drugs on newly grown collagen at the wound surface on days 5 and 10 were evaluated (FIGS. 23 and 24). 5 sections were taken from each mouse, and 5 fields of view were selected for each section. Data analysis was performed using the software Image-pro Plus.
# and rehydrated, subjected to antigen thermal repair with a 0.1 mol/L citric acid buffer (with a pH value of 6.0) for 20 minutes, treated with hydrogen peroxide with a volume fraction of 10% for inactivation of endogenous peroxidase for 10 minutes, and blocked with 50 g/L of bovine serum albumin for 2 hours. It was added with a rabbit anti-mouse CD31 primary antibody (with a dilution ratio of 1:300) and a mouse anti-VEGF (with a dilution ratio of 1:100), incubated overnight at 4° C., and washed with PBS. It was rewarmed for 1 hour, washed with PBS, added dropwise with ready-to-use biotinylated goat anti-mouse and goat anti-rabbit IgG secondary antibodies, incubated for 2 hours, and washed with PBS. It was subjected to DAB development, hematoxylin counterstaining. gradient ethanol dehydration, xylene permeabilization, and resin blocking. 5 sections were taken from each mouse, and 5 fields of view were selected for each section. The sections were observed under a 400× inverted fluorescence microscope, and analyzed for the number of CD31-positive blood vessels (see FIG. 25) and VEGF expression amounts (see FIG. 26) by using Image-pro Plus software.
# The specific steps were: the previous steps were the same as those of 1.3.3, and they were incubated with the antibodies MHCII (orb101661; 1:500; Biorbyt Biotechnology Co., Ltd., Wuhan, CN), CD11c (97585; 1:200; Cell Signaling Technology Inc., Boston, MA), CD68 (GB11067; 1:300; Servicebio Inc.), CD80 (GB11034; 1:300; Servicebio Inc.), CD206 (GB11062; 1:500; Servicebio Inc.), claudin1 (37-4900; 1:100; Thermo Fisher Scientific Co., Ltd, Shanghai, CN) and claudin2 (32-5600; 1:200; Thermo Fisher Scientific Co., Ltd.) at 4° C. overnight. The fluorescent-labeled secondary antibodies were incubated at room temperature for 1 h, followed by 4′,6-diamidino-2′-phenylindole (DAPI) (G1012; Google Biotechnology Co., Ltd., Wuhan, CN). The stained sections were photographed by using a fluorescence microscope (Nikon Eclipse TI-SR. Tokyo, Japan). […]
# fibroblasts (NIH/3T3) = experiment: Scratch experiment, Hst1-MAD cyclic peptides (Example 23); format: cell-based; details: dose required to achieve the same pharmaceutical effect in the scratch experiment
# Description: In this example, the propargylglycine-Hst1-MAD cyclic peptide, the homopropargylglycine-Hst1-MAD cyclic peptide, the dihomopropargylglycine-Hst1-MAD cyclic peptide and the linear Hst1 prepared in Examples 13, 14, and 15, and the Hst1-MAD head-to-tail cyclic peptide or N-terminal and C-terminal cyclized peptide prepared by the amide bond cyclization method provided by the literature of for example Sortase A as a tool for high-yield histatin cyclization, Jan G. M. Bolscher, The FASEB Journal. Research Communication, were adopted respectively, the reaction time was recorded, the yield of the reaction product was detected by HPLC, the proportion of side reactions in the reaction product was calculated, and activity comparison was performed. The activity comparison method was to calculate the dose required to achieve the same pharmaceutical effect through a scratch experiment. […] After 12 hours and 24 hours of culture, the scratched area of each group was calculated by using imageJ (Rawak Software, Inc. Germany) software, and the scratch area at 0 hour was an initial scratch area. The scratch healing rate was calculated in the following manner: W % (scratch healing rate)=(W0−Wt)/W0×100%, where W0=an initial scratch area, and Wt=a remaining scratch area; and the results were as shown in Table 14.
substance,measurement,setting,value
Cyclized Hst1 prepared by Sortase A enzymatic method,"ring closure, conversion","enzyme bond, Sortase A",90%
Hst1 cyclized through amide bonds,"ring closure, conversion",amide bond,3%
"Linear Hst1-MAD: shortest sequence that maintains Hst1 activity, 20th to 32nd amino acids of Hst1, SEQ ID NO.13 (SHREFPFYGDYGS)",inhibitory effects on inflammatory factors IL-6 and MIP-1β,"[1]; Western Blot, 1 μM Click-Hst1-MAD, 1 μM Hst1-MAD",significantly better than those of the control group and the 10 μM Histatin1 group
same,expression levels of Nrf2 and HO-1,"[1]; day 3 after surgery, Western Blot, 1 μM Click-Hst1-MAD, 1 μM Hst1-MAD",increased compared with those in the Control group
same,VEGF expression amount,"[1]; day 5, 1 μM Click-Hst1-MAD, 10 μM Histatin1, 1 μM Hst1-MAD compared with each other",comparable
same,expression levels of the dermal collagen,"[1]; day 5, 1 μM Hst1-MAD and 10 μM Histatin1 compared with each other",equivalent
same,epidermal thickness at the wound surface,"[1]; day 10, HE staining, 1 μM Click-Hst1-MAD, 1 μM Hst1-MAD, 10 μM Histatin1",thinnest epidermal thickness
same,Claudin1 expression intensity,"[1]; day 10, immunofluorescence, 1 μM Click-Hst1-MAD, 1 μM Hst1-MAD, 10 μM Histatin1",equivalent expression level of Claudin1
same,healing rate of the wound surface,"[1]; days 3 and 5, 1 μM Click-Hst1-MAD, 1 μM Hst1-MAD linear peptide, 10 μM Histatin1",equivalent to that of the 10 μM Histatin linear peptide group
same,number of dendritic cells (MHCII+ and CD11c+),"[1]; days 3 and 5 evaluated, 1 μM Click-Hst1-MAD, 1 μM Hst1-MAD, 10 μM Histatin1",slightly lower than that of the 10 μM Histatin1 group; also recorded: significantly higher than that in the Control group
same,number of M1 macrophages (CD68+ and CD80+),"[1]; days 3 and 5 evaluated, 1 μM Hst1-MAD, 10 μM Histatin1",slightly higher than that in the 10 μM Histatin1 group; also recorded: lower than that in the Control group
same,number of CD31-positive blood vessels,"[1]; days 5 and 10, immunohistochemistry, 1 μM Click-Hst1-MAD, 1 μM Hst1-MAD, 10 μM Histatin1",significantly higher than that in the Control group
same,Dosage of agents required for scratch test,fibroblasts (NIH/3T3),8 µM
